From ChEMBL document CHEMBL1201862, “PubChem BioAssay data set” (2004)
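These data come from cells grown in 96-well plates and exposed to compound for 48 hours at five concentrations. At the GI50, growth is halved.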 Activity calls are given as the source filed them. No stated cut-off is given here; in the data, active = GI50 up to about 1.1 µM and inactive = higher.

Columns and labels:
Assay in all cases: NCI-60 cell line screen, 48 h
786-0 = tested on: 786-0
A549 = tested on: A549
DU-145 = tested on: DU-145
HOP-62 = tested on: HOP-62
LOX IMVI = tested on: LOX IMVI
MCF7 = tested on: MCF7
MDA-MB-435 = tested on: MDA-MB-435
MDA-N = tested on: MDA-N
Malme-3M = tested on: Malme-3M
NCI-H23 = tested on: NCI-H23
NCI-H522 = tested on: NCI-H522
OVCAR-4 = tested on: OVCAR-4
OVCAR-8 = tested on: OVCAR-8
RPMI-8226 = tested on: RPMI-8226
SK-MEL-28 = tested on: SK-MEL-28
SR = tested on: SR
T47D = tested on: T47D
U-251 = tested on: U-251
UO-31 = tested on: UO-31
COLO 205 = tested on: COLO 205

Row | SMILES | GI50 (786-0) | GI50 (A549) | GI50 (DU-145) | GI50 (HOP-62) | GI50 (LOX IMVI) | GI50 (MCF7) | GI50 (MDA-MB-435) | GI50 (MDA-N) | GI50 (Malme-3M) | GI50 (NCI-H23) | GI50 (NCI-H522) | GI50 (OVCAR-4) | GI50 (OVCAR-8) | GI50 (RPMI-8226) | GI50 (SK-MEL-28) | GI50 (SR) | GI50 (T47D) | GI50 (U-251) | GI50 (UO-31) | GI50 (COLO 205)
1 | Cn1nc(-c2ccccc2)c2c(-c3ccccc3)c3cc(Cl)ccc3nc21 | > 100 µM (inactive) | > 100 µM (inactive) | > 100 µM (inactive) | > 100 µM (inactive) | > 90.4 µM (inactive) | 82 µM (inactive) | > 100 µM (inactive) | > 100 µM (inactive) | > 100 µM (inactive) | > 100 µM (inactive) | 45 µM (inactive) | > 100 µM (inactive) | > 100 µM (inactive) | > 100 µM (inactive) | > 100 µM (inactive) | > 100 µM (inactive) | > 100 µM (inactive) | > 100 µM (inactive) | > 100 µM (inactive) | –
2 | CN(C)c1ccc(/C=C2\N=C(c3ccccc3)N(/N=C3\C(=O)Nc4ccccc43)C2=O)cc1 | 52.4 µM (inactive) | 74.1 µM (inactive) | 61.9 µM (inactive) | > 100 µM (inactive) | 28.8 µM (inactive) | 35.8 µM (inactive) | 20.4 µM (inactive) | 32.7 µM (inactive) | 45.9 µM (inactive) | > 100 µM (inactive) | 23.4 µM (inactive) | 32.4 µM (inactive) | 55 µM (inactive) | – | > 100 µM (inactive) | 27 µM (inactive) | 41.6 µM (inactive) | 76.6 µM (inactive) | 36 µM (inactive) | 30.2 µM (inactive)
3 | Cc1ccc(S(=O)(=O)ON2C(=O)c3c(N)c(C#N)c(-c4ccccc4)c(-c4ccccc4)c3C2=O)cc1 | 15.8 µM (inactive) | 19.4 µM (inactive) | 25.9 µM (inactive) | – | 15.8 µM (inactive) | 16 µM (inactive) | 9.77 µM (inactive) | 16.4 µM (inactive) | 21.5 µM (inactive) | – | 15.6 µM (inactive) | 21.9 µM (inactive) | 17.6 µM (inactive) | 11.1 µM (inactive) | 15.2 µM (inactive) | 8.39 µM (inactive) | 18.2 µM (inactive) | 16.2 µM (inactive) | – | 17.3 µM (inactive)
4 | CC1(C)[C@H]2Cc3cc(-c4cc5c(cn4)[C@@H]4C[C@H]([C@@H]5[C@@H]5c6cc(-c7cc8c(cn7)[C@@H]7C[C@H](C8)C7(C)C)ncc6[C@@H]6C[C@H]5C6(C)C)C4(C)C)ncc3[C@@H]1C2 | > 100 µM (inactive) | > 100 µM (inactive) | > 100 µM (inactive) | > 100 µM (inactive) | > 100 µM (inactive) | > 100 µM (inactive) | > 100 µM (inactive) | > 100 µM (inactive) | > 100 µM (inactive) | > 100 µM (inactive) | > 100 µM (inactive) | – | > 100 µM (inactive) | > 100 µM (inactive) | > 100 µM (inactive) | > 100 µM (inactive) | > 100 µM (inactive) | > 100 µM (inactive) | > 100 µM (inactive) | > 100 µM (inactive)
5 | N#Cc1ccc(-n2c3ccccc3c3ccc4c(c32)C(=O)C=CC4=O)cc1 | 1.56 µM (inactive) | 16.9 µM (inactive) | 3.6 µM (inactive) | 15.3 µM (inactive) | 2.99 µM (inactive) | 2.52 µM (inactive) | 2.01 µM (inactive) | 4.99 µM (inactive) | – | 6.89 µM (inactive) | 0.11 µM (active) | 3.78 µM (inactive) | 3.66 µM (inactive) | 3.72 µM (inactive) | 2.88 µM (inactive) | 1.46 µM (inactive) | 2.74 µM (inactive) | 4.56 µM (inactive) | 1.45 µM (inactive) | 2.79 µM (inactive)
6 | CCOC(=O)CCC(NC(=O)c1ccc(Nc2nc3ccccc3n3cccc23)cc1)C(=O)OCC (stereo not drawn) | 17 µM (inactive) | 39.6 µM (inactive) | 28.9 µM (inactive) | 23.7 µM (inactive) | 26.1 µM (inactive) | 16.6 µM (inactive) | 30.2 µM (inactive) | 28.4 µM (inactive) | 37.2 µM (inactive) | 35.9 µM (inactive) | 22.9 µM (inactive) | – | 19.6 µM (inactive) | 23.1 µM (inactive) | 47.6 µM (inactive) | 15.3 µM (inactive) | < 0.01 µM (active) | 23 µM (inactive) | 44.9 µM (inactive) | 53.8 µM (inactive)
7 | O=C(Cn1nc(Br)c(Br)c1Br)c1ccccc1 | 23.7 µM (inactive) | 33.7 µM (inactive) | 38.5 µM (inactive) | 37.2 µM (inactive) | 16.4 µM (inactive) | 36.2 µM (inactive) | 31 µM (inactive) | 32.9 µM (inactive) | 22 µM (inactive) | 24.8 µM (inactive) | 26 µM (inactive) | 36.1 µM (inactive) | 34.5 µM (inactive) | – | 37.2 µM (inactive) | 0.152 µM (active) | 24.5 µM (inactive) | 34 µM (inactive) | 18.2 µM (inactive) | 18.9 µM (inactive)
8 | Cc1nc2ccc(/N=N/N(C)C)cc2[nH]1 | > 100 µM (inactive) | > 100 µM (inactive) | > 100 µM (inactive) | > 100 µM (inactive) | > 100 µM (inactive) | > 100 µM (inactive) | > 100 µM (inactive) | > 100 µM (inactive) | > 100 µM (inactive) | – | > 100 µM (inactive) | > 100 µM (inactive) | > 100 µM (inactive) | > 100 µM (inactive) | > 100 µM (inactive) | > 100 µM (inactive) | > 100 µM (inactive) | > 100 µM (inactive) | > 100 µM (inactive) | > 100 µM (inactive)
9 | CCCCC1Cc2cc(OC)ccc2-c2nc3cc(OC)ccc3n21.CCCCC1Cc2cc(OC)ccc2-c2nc3ccc(OC)cc3n21 (stereo not drawn) | 14.7 µM (inactive) | 14 µM (inactive) | 16.4 µM (inactive) | 15.7 µM (inactive) | 16.4 µM (inactive) | 17.2 µM (inactive) | 13.2 µM (inactive) | 14 µM (inactive) | 16 µM (inactive) | 14.7 µM (inactive) | 7.67 µM (inactive) | 4.7 µM (inactive) | 15.6 µM (inactive) | 6.81 µM (inactive) | – | 11.6 µM (inactive) | 13.1 µM (inactive) | 15 µM (inactive) | 12.3 µM (inactive) | 4.9 µM (inactive)
10 | O=C(/C=C/C=C/c1ccccc1)c1ccc2c(c1)CCCC2 | 39 µM (inactive) | 49.8 µM (inactive) | 25.5 µM (inactive) | 91.6 µM (inactive) | 30.1 µM (inactive) | 32 µM (inactive) | 18.9 µM (inactive) | 19.6 µM (inactive) | – | 35 µM (inactive) | 13.4 µM (inactive) | 43.7 µM (inactive) | 33.1 µM (inactive) | 24.4 µM (inactive) | > 100 µM (inactive) | 21.2 µM (inactive) | 16 µM (inactive) | 35 µM (inactive) | 61 µM (inactive) | 40.4 µM (inactive)
